Measured values reported in the METLIN SMRT retention time set (Domingo-Almenara et al. 2019).

Assay: gradient 5% acetonitrile 3 min, to 50% in 2 min, to 85% in 15 min, held 3 min, 100 µL/min
Settings: column: Zorbax Extend-C18 2.1 x 50 mm; eluents: water / acetonitrile, 0.1% formic acid
Outline: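 Data were gathered over 3 months by HPLC coupled to a quadrupole time-of-flight mass spectrometer, operated in positive and negative ionization mode. Mixtures of ~100 pure standards ran on a Zorbax Extend-C18 column (2.1 × 50 mm, 1.8 μm) at 100 μL/min, with water and acetonitrile each containing 0.1% formic acid and dead and dwell volumes of 40 μL and 900 μL. Retention time was read from adduct peaks picked by computer and checked manually.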

| SMILES | RP-LC retention time |
| --- | --- |
| CN(Cc1ccccc1)C(=O)CN1C(=O)CCCc2cc(S(=O)(=O)N3CCCCC3)ccc21 | 907 s |
| CCOC(=O)N1CCC(NC(=O)Cn2cc(-c3ccc(C)cc3)oc2=O)CC1 | 772 s |
| Cc1cccc(-c2noc(Cn3cnc4c(cnn4-c4ccc(C)c(Cl)c4)c3=O)n2)c1 | 1280 s |
| CCCn1ncc(N2CCC(C(=O)N3CCN(CC)CC3)CC2)cc1=O | 567 s |
| O=C(NCCC1=CCCCC1)C(=O)NCC1(CO)CC1 | 713 s |
| Cn1cc(-c2cc3n(n2)CCC(=O)N3CC(=O)NC2CCCCCC2)c2ccccc21 | 856 s |
| Cc1ccc(NC(=O)Cn2nc(N(C)C)c3ccccc3c2=O)c(Br)c1 | 1010 s |
| Cc1c(Cl)cccc1NC(=O)Cn1c(=O)n(-c2ccc(F)cc2)c(=O)c2c1cc(C)n2C | 880 s |
| Cc1cccc(CNc2cc(-n3ccnc3)ncn2)c1 | 656 s |
| CN(CCc1ccccn1)C(=O)CCC1CCCN(c2cc(NC3CC3)ncn2)C1 (configuration not stated) | 561 s |
| COc1cccc(Cn2c(=O)c3sccc3n(Cc3nc(-c4ccccc4Cl)no3)c2=O)c1 | 1080 s |
| COc1ccc(N(Cc2nnc3n2CCCCC3)C(=O)Nc2ccccc2OC)cc1 | 772 s |
| O=C1NCCCn2cc(S(=O)(=O)Nc3ccc(Oc4ccccc4)cc3)cc21 | 768 s |
| O=C(N[C@H]1C[C@@H]2C[C@H]1N(C(=O)c1cccc(C(F)(F)F)c1)C2)c1cccs1 | 839 s |
| Cc1ccc(CNC(=O)Cn2c(N3CCCC3)nc(C)cc2=O)cc1 | 618 s |
| Cc1ccc(Sc2nccnc2N2CCCC(C(=O)NCCCc3ccccc3)C2)cc1 (configuration not stated) | 1210 s |
| CCOc1ncccc1C(=O)Nc1c(C)nc2sc(C)c(C)n2c1=O | 723 s |
| COc1ccc(-c2cc3nn(CC(=O)Nc4ccc(F)c(Cl)c4)c(=O)n3c(C)n2)cc1 | 992 s |
| O=C(COc1cc(O)c2c(=O)c3ccccc3oc2c1)c1ccc(Br)cc1 | 1280 s |
| Cc1nc(-c2ccc3c(c2)n(CC(=O)N2CCC4(CC2)OCCO4)c(=O)n3C(C)C)no1 | 720 s |
| CC(C)c1noc(-c2cccnc2-n2cnc(C(=O)Nc3ccc(F)cc3)c2)n1 | 890 s |
| Cc1ccc(Nc2c(-c3ccc(N(C)C)cc3)nc3cnccn23)c(C)c1 | 962 s |
| COc1cc([C@@H]2c3cc4c(cc3[C@H](O)[C@@H](CO)[C@@H]2C(=O)NCc2cc(F)ccc2F)OCO4)cc(OC)c1OC | 718 s |

| SMILES | RP-LC retention time |
| --- | --- |
| COC(=O)c1c(-c2ccccc2)noc1NCc1ccccc1OC | 1100 s |
| CCc1ccc(OCC(=O)N(Cc2ccc(N(C)C)cc2)C2CCS(=O)(=O)C2)cc1 (configuration not stated) | 792 s |
| Cc1ccc2c(=O)c(C(=O)N3CCOCC3)cn(CC(=O)NC3CCCCC3)c2n1 | 653 s |
| COc1ccc(-c2nc(N3CCCC3)c3ccccc3n2)cc1 | 742 s |
| CCN1CCN(c2ccc(NC(=O)c3ccccc3Cl)cn2)C1=O | 672 s |
| COc1ccccc1CNS(=O)(=O)c1cc(-c2cc(C(F)(F)F)on2)sc1C | 1120 s |
| CS(=O)(=O)c1ccc2nc(NC(=O)c3coc(NC(=O)c4cccs4)n3)sc2c1 | 685 s |
| COc1cccc(-c2nc3sc(C(N)=O)c(C)n3c2NC(C)(C)C)c1 | 743 s |
| O=C(NCc1ccccc1Cl)C1CCN(C(=O)c2sccc2-n2cccc2)CC1 | 863 s |
| CC1CCCCN1c1nc(-c2ccc([N+](=O)[O-])cc2)nc2ccccc12 (configuration not stated) | 948 s |
| O=C(NCc1cscn1)C1CCN(S(=O)(=O)c2cccs2)CC1 | 652 s |
| COc1ccc(NC(=O)N(C)CCc2noc(COc3ccccc3F)n2)cc1 | 845 s |
| COCc1nc(C2CCN(C(=O)C3CCCC3)C2)no1 (configuration not stated) | 688 s |
| Cc1ccc(NC(=O)c2nc3ccccc3[nH]c2=O)c(C)c1 | 778 s |
| CCC(=O)NCc1nc2c(n1CC)CN(S(=O)(=O)c1ccc(Cl)cc1)CC2 | 538 s |
| CCOc1ccc(-c2cc(C(F)(F)F)nn2-c2nc(-c3ccc(F)cc3)cs2)cc1 | 882 s |
| Cn1cccc1C(=O)C(=O)Nc1ccc(Cl)c(C(F)(F)F)c1 | 1130 s |
| Cc1ccc(NC(=O)CN2CCC(C(=O)N3CCN(C(=O)c4ccco4)CC3)CC2)cc1 | 569 s |
| CCOC(=O)Cc1sc(Nc2nc(C)cc(C)n2)nc1-c1ccccc1 | 989 s |
| Cc1ccc(NC(=O)c2cnc3c(c2)c(=O)n(C)c(=O)n3-c2ccccc2)cc1 | 919 s |
| CC(C)n1c(=O)sc2cc(S(=O)(=O)N3CCC(C(=O)N4CCc5ccccc5C4)CC3)ccc21 | 1000 s |
| CC(C)N1CCN(Cc2ccc(C(=O)NC3CC3)cc2)C(=O)C1=O | 604 s |
| C=C(C)CN1CC[C@]23c4c5ccc(O)c4O[C@H]2c2[nH]c4ccccc4c2C[C@@]3(O)[C@H]1C5 | 647 s |

Other lines, results leading:

| RP-LC retention time | SMILES |
| --- | --- |
| 824 s | CC(Oc1ccccc1)C(=O)NCc1nnnn1-c1ccc(Cl)cc1 (configuration not stated) |
| 750 s | CC(=O)NC(CC(C)C)C(=O)NC(Cc1ccccc1)C(=O)CCl (configuration not stated) |
| 694 s | COc1cc(NC(=O)N2CCCN(c3ccc(=O)n(-c4ccccc4)n3)CC2)cc(OC)c1OC |
| 752 s | COc1cc2nc(C(=O)N3CCCCC3)cc(Nc3cccc(C(F)(F)F)c3)c2cc1OC |
| 959 s | Cc1nc(-c2ccc3c(c2)CCN3C(=O)c2n[nH]c3ccccc23)cs1 |
| 791 s | COc1cccc(NC(=O)Cc2csc3nc(-c4ccccc4)cn23)c1 |
| 856 s | COCCNC(=O)c1c2c(cn(-c3ccc(Cl)cc3)c1=O)C(=O)CC(C)(C)C2 |
| 717 s | CC(C)CNC(=O)/C=C\C(=O)O |
| 808 s | Cc1ccc(C(=O)Nc2nccnc2C(=O)NCC2CCCO2)cc1 (configuration not stated) |
| 621 s | CCC(C)NC(=O)N1CCN(c2cc(-c3ccc(OC)c(OC)c3)ncn2)CC1 (configuration not stated) |
| 1160 s | CCc1ccc(-c2noc(Cn3c(=O)n(-c4ccc(C)cc4)c(=O)c4sccc43)n2)cc1 |
| 1010 s | COc1ccccc1NC(=O)Cn1c2ccccc2n2c(=O)cc(-c3ccc(F)cc3)nc12 |
| 963 s | COc1ccc(-c2cc3nn(CC(=O)Nc4ccc(C)cc4F)c(=O)n3c(C)n2)cc1 |
| 813 s | COc1cc(OC)c(NS(=O)(=O)c2cc(-c3c(C)noc3NC(C)=O)ccc2C)cc1Cl |
| 708 s | Cc1cc(C)n(CCNC(=O)c2nc3ccccc3s2)n1 |
| 674 s | CN1CCN(C(=O)C2CCN(c3nc4ccc(-c5ccc(F)cc5)nc4s3)CC2)CC1 |
| 809 s | Cc1ccc(C(C)NC(=O)C2CCCN(c3cnc4nccnc4c3)C2)c(C)c1 (configuration not stated) |
| 975 s | CCCn1c(=O)sc2cc(S(=O)(=O)N3CCC(C(=O)NCc4cccc(C)c4)CC3)ccc21 |
| 594 s | O=C1NCCN2CC3(CCN(S(=O)(=O)Cc4ccccc4)CC3)CC12 (configuration not stated) |
| 697 s | O=C(CCc1c(-c2ccc(F)cc2)nc2ccccn12)Nc1cc(F)ccc1F |
| 1020 s | Cc1sc(C)c(S(=O)(=O)NCC2CCCO2)c1-c1cc(C(F)(F)F)on1 (configuration not stated) |

| RP-LC retention time | SMILES |
| --- | --- |
| 709 s | O=c1c2ccccc2c(-c2nc(-c3cccnc3)no2)cn1-c1cccc(F)c1 |
| 906 s | COc1ccc(-c2nnc(COc3cccc(NC(=O)Cc4cccs4)c3)o2)cc1 |
| 1190 s | COc1ccc(-c2csc(Nc3ccc(C)cc3)n2)cc1 |
| 733 s | Cc1ccc(C)c(NC(=O)NCC(c2cccnc2)c2cn(C)c3ccccc23)c1 (configuration not stated) |
| 1140 s | COc1cc(NS(=O)(=O)c2c(C)sc(C)c2-c2cc(C(F)(F)F)on2)cc(OC)c1 |
| 769 s | CC(C)CNC(=O)CCc1nc2ccccc2n(CC(=O)NCc2ccccc2)c1=O |
| 699 s | COC(=O)c1cnc2nc(C)ccc2c1Nc1ccc(C)cc1C |
| 1080 s | Cc1ccc(Nc2nc(-c3ccc(Br)cc3)cs2)nc1 |
| 554 s | COc1cc(CN2C[C@@H](CO)[C@H](N(C)C)C2)ccc1OC(C)C |
| 732 s | CCc1nnc2cc(N3CCN(S(=O)(=O)c4ccc(C)cc4)CC3)cnn12 |
| 977 s | Cc1cc(-c2nnc(-c3ccc(F)cc3)o2)c(C)n1CC(=O)Nc1ccccc1 |
| 577 s | CN(Cc1cccnc1)C(=O)C12CCC=C1N(C1CCCC1)C(=O)CC2 (configuration not stated) |
| 576 s | O=C(c1cc2ccccc2[nH]1)N1CCN(Cc2nc3ccccc3[nH]2)CC1 |
| 696 s | CC(=O)Nc1ccc(S(=O)(=O)NCC2(c3cccs3)CCOCC2)c(C)c1 |
| 812 s | O=S(=O)(Cc1ccccc1)N1CCC(c2noc(-c3ccncc3)n2)C1 (configuration not stated) |
| 735 s | Cc1ccccc1NC(=O)c1nc2ccccc2[nH]c1=O |
| 920 s | CC(C)CNC(=O)c1cn(-c2cc(-c3nc(C(C)C)no3)ccn2)cn1 |
| 639 s | COc1cc(NC(=O)N2CCCC(Cn3c(C)nc4cccnc43)C2)cc(OC)c1 (configuration not stated) |
| 805 s | Cc1ccc(Nc2c(-c3ccc(N(C)C)cc3)nc3ncccn23)cc1Cl |
| 995 s | Cc1nn(-c2ccc(Cl)cc2)c(C)c1S(=O)(=O)N1CCC(C(=O)N2CCCCC2)CC1 |
